{
  "source": "patent US12128024B2",
  "about": "(GEORGETOWN UNIVERSITY, priority 2004, dated 2024)",
  "key": {"[1]": {"system": "cervical cancer cell lines (HeLa, SiHa, Caski)", "test": "Viability dose-response of cervical cancer cell lines (FIG. 3)", "format": "cell-based", "conditions": "72 h, 25 μM DHA, within 3 days of treatment, read-out: loss of viability"}, "HeLa cells": {"system": "HeLa cells", "test": "Viability dose-response of HeLa cells (FIG. 3)", "format": "cell-based", "conditions": "25 μM DHA"}, "[2]": {"system": "MJ, HTLV-I positive cutneous T cell leukemia line", "test": "Trypan blue viability of HTLV-I positive lymphoid cell line (FIG. 5)", "format": "cell-based", "conditions": "Primate T-lymphotropic virus 1, T-cell; 6.25 μM DHA; MJ cells; read-out: cells killed (viability as % of controls, trypan blue)", "procedure": "(§1) One cell line, referred to as MJ, is an HTLV-I positive cutneous T cell leukemia line and the other cell line, referred to Namalwa, is an EBV positive Burkitt's lymphoma B cell line.\n(§2) The cell lines were maintained in culture, using RPMI 1640 medium, supplemented with 10% fetal bovine serum and antibiotics. For the assay, 100,000 cells, in volumes of 100 μl medium, were placed in micro-titer wells; an additional 100 μl medium, containing 0 μM, 6.25 μM, 12.5 μM, 25 μM, 50 μM, 100 μM and 200 μM concentrations of DHA, were added. The negative controls contained medium only. The DHA stock (20 mM) was used to dilute the drug in concentrations ranging from 0 to 200 μM. All experiments were performed in triplicate. After incubation at 37° C. and 5% CO2, for various time periods, the cells were counted in a hemocytometer in the presence of trypan blue. Viability was expressed, as % of controls (no drug)."}, "[3]": {"system": "Namalwa, EBV positive Burkitt's lymphoma B cell line", "test": "Trypan blue viability of EBV positive lymphoid cell line (FIG. 4)", "format": "cell-based", "conditions": "human gammaherpesvirus 4, B-cell; 6.25 μM DHA; Namalwa cells; read-out: cells killed (viability as % of controls, trypan blue)", "procedure": "as §1, §2"}, "[4]": {"conditions": "cited from earlier work"}, "[5]": {"system": "normal cervical cells (HCX)", "test": "Morphology of normal cervical cells after artemisinin treatment (phase contrast microscopy, FIG. 2)", "format": "cell-based", "conditions": "25 μM artemisinin, 3 days, vs control solvent"}, "[6]": {"system": "cervical cancer cell lines", "test": "Morphology of cervical cancer cell lines after artemisinin treatment (phase contrast microscopy, FIG. 2)", "format": "cell-based", "conditions": "25 μM artemisinin, 3 days, vs control solvent"}},
  "data": [
    {"smiles": "C[C@H]1[C@@H](O)O[C@@H]2O[C@@]3(C)CC[C@H]4[C@H](C)CC[C@@H]1[C@@]24OO3", "note": "[DHA, dihydroartemisinin]", "values": [
      {"measurement": "cytotoxicity at 25 µM", "setting": "[1]", "value": 80, "unit": "%"},
      {"measurement": "cell death", "setting": "HeLa cells", "value": 95, "unit": "%"},
      {"measurement": "cytotoxicity at 6.25 µM", "setting": "[2]", "value": "~60", "unit": "%"},
      {"measurement": "cytotoxicity at 6.25 µM", "setting": "[3]", "value": "~60", "unit": "%"},
      {"measurement": "solubility in water compared with artemisinin", "setting": "[4]", "value": "higher solubility in water"}
    ]},
    {"smiles": "CCO[C@H]1O[C@@H]2O[C@@]3(C)CC[C@H]4[C@H](C)CC[C@@H]([C@H]1C)[C@@]24OO3", "note": "[arteether]", "values": [
      {"measurement": "solubility in water compared with artemisinin", "setting": "[4]", "value": "higher solubility in water"}
    ]},
    {"smiles": "C[C@H]1[C@@H](OCc2ccc(C(=O)O)cc2)O[C@@H]2O[C@@]3(C)CC[C@H]4[C@H](C)CC[C@@H]1[C@@]24OO3", "note": "[artelinic acid]", "values": [
      {"measurement": "solubility in water compared with artemisinin", "setting": "[4]", "value": "higher solubility in water"}
    ]},
    {"smiles": "CO[C@H]1O[C@@H]2O[C@@]3(C)CC[C@H]4[C@H](C)CC[C@@H]([C@H]1C)[C@@]24OO3", "note": "[artemether]", "values": [
      {"measurement": "solubility in water compared with artemisinin", "setting": "[4]", "value": "higher solubility in water"}
    ]},
    {"smiles": "C[C@@H]1CC[C@H]2[C@@H](C)C(=O)O[C@@H]3O[C@@]4(C)CC[C@@H]1[C@]32OO4", "note": "[artemisinin]", "values": [
      {"measurement": "change in morphology of normal cervical cells (HCX)", "setting": "[5]", "value": "little change in morphology"},
      {"measurement": "change in morphology of cervical cancer cells", "setting": "[6]", "value": "rounded up and detached from the tissue culture plate"}
    ]},
    {"smiles": "CCCOC(=O)OC1O[C@@H]2O[C@@]3(C)CC[C@H]4[C@H](C)CC[C@@H]([C@H]1C)[C@@]24OO3", "note": "(some centres unmarked) [propylcarbonate dihydroartemisinin]", "values": [
      {"measurement": "solubility in water compared with artemisinin", "setting": "[4]", "value": "higher solubility in water"}
    ]}
  ]
}
